The record followed here is patent US10550143B2, “C,O-spiro aryl glycoside compounds, preparation therefor and use thereof” (SHANGHAI INSTITUTE OF MATERIA MEDICA, CHINESE ACADEMY OF …, priority 2015, dated 2020).

The target of assay [1] is T1, human sodium-glucose cotransporter 2 (SGLT2) (Homo sapiens, UniProt P31639).
T1 construct: expressed in transfected cells; host or cells: NIH3T3 (mouse fibroblast) cells expressing hSGLT2
T1 sequence (P31639 1-672): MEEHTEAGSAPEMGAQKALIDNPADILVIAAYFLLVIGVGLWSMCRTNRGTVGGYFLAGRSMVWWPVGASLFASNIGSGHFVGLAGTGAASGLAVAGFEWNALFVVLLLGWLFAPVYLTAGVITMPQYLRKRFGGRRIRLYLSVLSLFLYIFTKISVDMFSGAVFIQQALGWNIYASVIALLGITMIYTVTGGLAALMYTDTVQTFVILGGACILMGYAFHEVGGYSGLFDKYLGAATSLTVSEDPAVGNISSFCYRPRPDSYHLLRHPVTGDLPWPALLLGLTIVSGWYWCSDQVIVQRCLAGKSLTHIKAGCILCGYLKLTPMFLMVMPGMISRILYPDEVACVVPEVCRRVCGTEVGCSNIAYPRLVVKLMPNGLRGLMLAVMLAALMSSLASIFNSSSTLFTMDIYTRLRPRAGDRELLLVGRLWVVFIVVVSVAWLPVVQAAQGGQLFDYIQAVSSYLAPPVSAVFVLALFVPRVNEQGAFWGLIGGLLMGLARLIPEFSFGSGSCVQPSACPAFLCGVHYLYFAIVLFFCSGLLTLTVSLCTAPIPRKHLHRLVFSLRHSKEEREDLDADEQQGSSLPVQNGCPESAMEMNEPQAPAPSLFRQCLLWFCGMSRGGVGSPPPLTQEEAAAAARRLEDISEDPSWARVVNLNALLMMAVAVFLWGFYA
Briefly: In vitro SGLT2 inhibition, methyl-α-D-[U-14C]glucopyranoside uptake in NIH3T3-hSGLT2 cells. In kind it is cell-based. Particulars: for Selectivity: IC50 SGLT1/IC50 SGLT2; for inhibition at 0.01 µM: SGLT2, 10 nM, read-out: % Inhibition rate ± SD 10 nM; for inhibition at 0.1 µM: SGLT2, 100 nM, read-out: % Inhibition rate ± SD 100 nM; for IC50: read-out: IC50 ± SD SGLT2. The protocol:
Inhibition of the compounds of formula I against human sodium-glucose cotransporter 2 (SGLT2) was determined experimentally and the experimental procedures were carried out as reference^1.
Methyl-α-D-[U-^14C] glucopyranoside (Perkin Elmer) Dimethylsulfoxide (Genebase, Prod No: 0231)
(1) Primary screening of hSGLT2 are conducted with two concentrations, 100 nM and 10 nM;
SGLT2 transports D-glucose at 1:1 sodium-glucose ratio, glucose is replaced by the non-metabolic and isotope labeled methyl-aD-[U-^14C] glucopyranoside and methyl-aD-glucopyranoside, and the amount of isotope transferred into the cells was determined.
1) 0.2% gelatin in a 96-well plate was put in a 37° C. incubator for further use;
2) NIH3T3-hSGLT2 cells were injected into 96-well plates, 40000/well, and 100 μL culture medium per well:
3) the fluid was changed in the next day, and sodium butyrate was added into medium at a final concentration of 2 mM;
4) wash the cells with 100 μL of KRH—Na^+ for 3 times and incubate cells with 50 μL for 30 minutes. Cells were changed to 50 μL of compound in KRH—Na^+, uptake buffer (KRH—Na^+ and methyl-α-D-[U-^14C]glucopyranoside and ⅙ mM methyl-α-D-glucopyranoside at 10 μL per well) was added; KRH-acetylcholine solution was used as background control instead of KRH-Na^+
5) washed with 100 μL PBS for 3 times, dried, 50 μL lysate and 150 μL scintillation fluid were added, the membrane was covered and flattened, shaken on a shaker to mix thoroughly, centrifuged at 1500 rpm at 4° C. for 3 min, taken out and read;
6) the results were analyses.
The inhibition rate (% Inhibiton) of each sample at each concentration was calculated by dividing the value of the compound well value minus the background value by the value of the DMSO control well value minus the background value.
IC50 is calculated as follows: […]
The y value is the activity or inhibition percent, the x value is the concentration of the corresponding compound, top (the maximum y value of the curve), bottom (the minimum y value of the curve).

The next assay has as its target T2, hSGLT1 (Homo sapiens, UniProt P13866).
T2 sequence (P13866 1-664): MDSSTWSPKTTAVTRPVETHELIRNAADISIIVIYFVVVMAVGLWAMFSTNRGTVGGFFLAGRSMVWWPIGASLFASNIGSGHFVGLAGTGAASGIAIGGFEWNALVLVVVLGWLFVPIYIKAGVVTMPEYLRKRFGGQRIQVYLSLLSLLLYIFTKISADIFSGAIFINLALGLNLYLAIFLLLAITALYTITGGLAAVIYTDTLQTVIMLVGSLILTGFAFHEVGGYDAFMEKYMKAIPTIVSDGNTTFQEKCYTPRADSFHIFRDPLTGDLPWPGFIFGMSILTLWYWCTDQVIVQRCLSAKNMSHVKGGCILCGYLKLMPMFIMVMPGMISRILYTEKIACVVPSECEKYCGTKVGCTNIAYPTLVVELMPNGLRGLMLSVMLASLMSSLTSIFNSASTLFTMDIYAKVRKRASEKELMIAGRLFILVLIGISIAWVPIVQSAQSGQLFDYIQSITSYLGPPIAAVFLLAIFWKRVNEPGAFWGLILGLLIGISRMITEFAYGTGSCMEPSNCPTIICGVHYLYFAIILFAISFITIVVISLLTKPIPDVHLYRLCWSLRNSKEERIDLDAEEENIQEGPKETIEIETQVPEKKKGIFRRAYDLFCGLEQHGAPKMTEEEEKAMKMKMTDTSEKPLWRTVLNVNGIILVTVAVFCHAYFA
Briefly: In vitro SGLT1 inhibition (hSGLT1 IC50 test). Particulars: read-out: IC50 ± SD SGLT1. It is filed as cell-based.

A further assay deals with SD rats. Kind of assay: Acute single administration, urinary glucose changes in SD rats. It is filed as in vivo, rat. On the set-up: Urine glucose concentration / The total amount of glucose excreted: unit not given here. The conditions noted are these: 1 mg/kg oral, after 24 h. The method, then: (1) Acutely Administering Compound to Observed the Urinary Glucose Changes in SD Rats
Thirty-eight male normal SD rats were selected and randomly divided into 5 groups according to body weight and blood glucose, 6-8 in each group. […] After oral gavage, the rats were placed in rats metabolic cages, and urine was collected after 24 h, and the urine volume was recorded, the urine sugar concentration was determined, and urinary sugar content was calculated according to the following formula. Urine content=urinary sugar concentration×urine volume
Glucose levels in urine are measured by the glucose assay kit.
Data were expressed as mean±standard deviation (x±s), and Student's t test was used for statistical analysis of the data, p<0.05 was considered statistically significant.

In another assay the test system is db/db mice. Kind of assay: Chronic administration, random blood glucose in db/db mice. Particulars: for random blood glucose Pre: before administration; for Hypoglycemic rate % week 1 / Hypoglycemic rate % week 2 / Hypoglycemic rate % week 3 / Hypoglycemic rate % week 4: random blood glucose. It is filed as in vivo, mouse. The method, then:
Oral gavage administrated, daily dose volume was 10 mL/kg, administered once daily. Administration time was 9: 00-10:00 daily, and the administration period was 5 weeks.
The random blood glucose of mice in the normal control group, model control group, test substance administration group and positive control group were determined on the 7th, 14th, 21st, 28th day (9: 00-10:00) every week after the first administration, and food was removed and after 6 hours of starvation, the fasting blood glucose in each group was measured. Free drinking during the hunger process. The rate of decrease of blood glucose was calculated according to the following formula: Average hypoglycemic rate %=(Blood glucose of model control group−Blood glucose of administration group)/Model control group×100%

For the molecule `CCc1ccc(Cc2ccc3c(c2)[C@]2(OC3)O[C@H](C)[C@@H](O)[C@H](O)[C@H]2O)cc1` [Example A2, (1S,3′R,4′S,5′S,6′R)-6′-methyl-6-(4-ethylbenzyl)-3′,4′,5′,6′-tetrahydro-3H-spiro[isobenzofuran-1,2′-pyran]-3′,4′,5′-triol], in assay [1], the Selectivity worked out at 351, the inhibition at 0.01 µM was found to be 51.4 ± 2.1%, the inhibition at 0.1 µM is 62.6 ± 2% and the IC50 turned out to be 63.5 ± 7.1 nM. At hSGLT1, the IC50 worked out at 22300 ± 4260 nM.

Consider `CCc1ccc(Cc2cc3c(cc2Cl)CO[C@]32O[C@H](C)[C@@H](O)[C@H](O)[C@H]2O)cc1` [Example A22, (1S,3′R,4′S,5′S,6′R)-6′-methyl-6-(4-ethylbenzyl)-5-chloro-3′,4′,5′,6′-tetrahydro-3H-spiro[isobenzofuran-1,2′-pyran]-3′,4′,5′-triol], for which, in assay [1], the Selectivity stood at 13, the inhibition at 0.01 µM is 25 ± 3.1%, the inhibition at 0.1 µM turned out to be 79.8 ± 8.5% and the IC50 was 29.7 ± 18.4 nM. Besides, the IC50 on hSGLT1 is 410 ± 50 nM.

On to `CCOc1ccc(Cc2cc3c(cc2Cl)CO[C@]32O[C@H](C)[C@@H](O)[C@H](O)[C@H]2O)cc1` [Example A26, (1S,3′R,4′S,5′S,6′R)-6′-methyl-6-(4-ethoxybenzyl)-5-chloro-3′,4′,5′,6′-tetrahydro-3H-spiro[isobenzofuran-1,2′-pyran]-3′,4′,5′-triol], for which, in assay [1], the Selectivity worked out at 58, the inhibition at 0.01 µM is 51.5 ± 10.7%, the inhibition at 0.1 µM amounted to 90.5 ± 4.1% and the IC50 was 15.7 ± 2.1 nM. Also, the IC50 at hSGLT1 was determined as 920 ± 90 nM.

On to `CCOCCc1ccc(Cc2cc3c(cc2Cl)CO[C@]32O[C@H](C)[C@@H](O)[C@H](O)[C@H]2O)s1` [Example A115, (1S,3′R,4′S,5′S,6′R)-5-chloro-6-((5-(2-ethoxyethyl)thiophene-2-yl)methyl)-6′-methyl-3′,4′,5′,6′-tetrahydro-3H-spiro[isobenzofuran-1,2′-pyran]-3′,4′,5′-triol], for which, in assay [1], the inhibition at 0.01 µM amounted to 78.1 ± 5.1% and the inhibition at 0.1 µM came to 53.8 ± 5.5%.

For the molecule `CCCOCCc1ccc(Cc2cc3c(cc2Cl)CO[C@]32O[C@H](C)[C@@H](O)[C@H](O)[C@H]2O)s1` [Example A116, (1S,3′R,4′S,5′S,6′R)-5-chloro-6-((5-(2-propoxyethyl)thiophene-2-yl)methyl)-6′-methyl-3′,4′,5′,6′-tetrahydro-3H-spiro[isobenzofuran-1,2′-pyran]-3′,4′,5′-triol], in assay [1], the inhibition at 0.01 µM is 89.4 ± 1.5% and the inhibition at 0.1 µM came out at 62.3 ± 6%.

As to `CC(=O)c1ccc(Cc2cc3c(cc2Cl)CO[C@]32O[C@H](C)[C@@H](O)[C@H](O)[C@H]2O)s1` [Example A117, 1-(5-(((1S,3′R,4′S,5′S,6′R)-5-chloro-3′,4′,5′-trihydroxy-6′-methyl-3′,4′,5′,6′-tetrahydro-3H-spiro[isobenzofuran-1,2′-pyran]-6-yl)methyl)thiophene-2-yl)ethanone], in assay [1], the inhibition at 0.01 µM worked out at 30.1 ± 1% and the inhibition at 0.1 µM stood at 22.6 ± 8.3%.

Take `CCc1ccc(C(O)c2cc3c(cc2Cl)CO[C@]32O[C@H](C)[C@@H](O)[C@H](O)[C@H]2O)s1` (stereo partly shown) [Example A120]: in assay [1], the inhibition at 0.01 µM turned out to be 4 ± 9.2% and the inhibition at 0.1 µM was 22.8 ± 8.1%.

Consider `CCOc1ccc(Cc2cc([C@@H]3O[C@H](CO)[C@@H](O)[C@H](O)[C@H]3O)ccc2Cl)cc1` [dapagliflozin, reference compound], for which, in the assay with SD rats (Table 3), the “The total amount of glucose excreted” value was 1860.61 ± 575.28 and the Urine glucose concentration is 251.92 ± 52.98. The molecule also gave a Urine volume in the assay on SD rats (Table 3, in mL) of 40.75 ± 8.60. In the assay with SD rats (Table 4), the “The total amount of glucose excreted” value was 1822.21 ± 112.97 and the Urine glucose concentration is 382.41 ± 35.64. The molecule also registered a Urine volume with SD rats (Table 4, in mL) of 26.67 ± 3.01. Further, in assay [1], the inhibition at 0.01 µM is 59.6 ± 11.3% and the inhibition at 0.1 µM stood at 103 ± 2.8%. For the same molecule, in the assay on db/db mice (1 mg/kg once daily oral), the “random blood glucose week 1” value was 14.9 ± 0.9 mmol/L, the “random blood glucose week 2” value is reported as 14.9 ± 1.1 mmol/L, the “random blood glucose week 3” value is on record as 14.9 ± 1.0 mmol/L and the “random blood glucose week 4” value was found to be 14.4 ± 1.1 mmol/L. In the assay on db/db mice (1 mg/kg once daily oral), the “random blood glucose Pre” value came to 19.3 ± 1.2 mmol/L, the “Hypoglycemic rate % week 1” value stood at 24.0%, the “Hypoglycemic rate % week 2” value was 23.6% and the “Hypoglycemic rate % week 3” value is 26.4%. In the assay with db/db mice (1 mg/kg once daily oral), the “Hypoglycemic rate % week 4” value stood at 30.5%. In the assay with db/db mice (3 mg/kg once daily oral), the “random blood glucose week 1” value is given as 13.4 ± 0.8 mmol/L, the “random blood glucose week 2” value came out at 14.1 ± 0.8 mmol/L, the “random blood glucose week 3” value turned out to be 15.2 ± 1.2 mmol/L and the “random blood glucose week 4” value is listed as 11.7 ± 1.0 mmol/L. In the assay on db/db mice (3 mg/kg once daily oral), the “random blood glucose Pre” value is 17.5 ± 1.2 mmol/L, the “Hypoglycemic rate % week 1” value amounted to 32.0%, the “Hypoglycemic rate % week 2” value amounted to 27.7% and the “Hypoglycemic rate % week 3” value is recorded as 25.4%. Further, the “Hypoglycemic rate % week 4” value in the assay on db/db mice (3 mg/kg once daily oral) was determined as 43.8%.

The term inhibition denotes the change of the read-out against control, counted positive when it falls. The IC50 is the concentration at which inhibition is half-maximal.
